Measurements taken from publication PMC9775191, “A Subset Screen of the Compounds Australia Scaffold Library Identifies 7-Acylaminodibenzoxazepinones as Potent and Selective Hits for Anti-Giardia Drug Discovery” (Biomedicines, 2022).
Like-named read-outs stand apart in the source and are kept apart here.

Tests used:
[1] = test system: methicillin resistant Staphylococcus aureus (ATCC 43300); experiment: Anti-bacterial activity assay; format: cell-based; conditions: for inhibition at 50 µM: Staphylococcus aureus, ATCC43300, 50 µM, read-out: Bacterial Inhibition S. aureus
Method: (§1) The activity of compounds against methicillin resistant Staphylococcus aureus (ATCC 43300), Escherichia coli (ATCC 25922), Acinetobacter baumannii (ATCC 19606) and Klebsiella pneumoniae (ATCC 700603) was assessed at 50 µM in duplicate as previously described. In brief, mid-log phase bacteria cultures were added to 384-well microtiter plate wells containing compound to final cell density of 5 × 10^5 CFU/mL in 50 µL. Plates were then covered and incubated at 37 °C for 18 h without shaking. Inhibition of bacterial growth was determined by measuring absorbance at 600 nm (Tecan M1000 Pro monochromator plate reader) and calculating percentage growth inhibition relative to the negative media and bacteria without inhibitors. Vancomycin hydrochloride (Sigma-Aldrich an affiliate of Merck KGaA, Darmstadt, Germany, #861987) and colistin sulfate (Sigma-Aldrich an affiliate of Merck KGaA, Darmstadt, Germany, C4461) were on each plate as positive controls for Gram-positive (S. aureus) and Gram-negative (E. coli, A. baumannii and K. pneumoniae) bacteria, respectively.

[2] = test system: Klebsiella pneumoniae (ATCC 700603); experiment: Anti-bacterial activity assay; format: cell-based; conditions: ATCC700603, 50 µM, read-out: Bacterial Inhibition K. pneumoniae
Method: as §1

[3] = test system: Acinetobacter baumannii (ATCC 19606); experiment: Anti-bacterial activity assay; format: cell-based; conditions: ATCC19606, 50 µM
Method: as §1

[4] = test system: Escherichia coli (ATCC 25922); experiment: Anti-bacterial activity assay; format: cell-based; conditions: for inhibition at 50 µM: Escherichia coli, ATCC25922, 50 µM, read-out: Bacterial Inhibition E. coli
Method: as §1

[5] = test system: Neonatal foreskin fibroblast (NFF) cells; experiment: Mammalian cell cytotoxicity assay (sulforhodamine B); format: cell-based, human; conditions: for inhibition at 20 µM: ±SD; for SI (48h Gd): Table S2, NFF vs 48 h Giardia IC50
Method: The selectivity of compounds of interest was assessed against NFF cells. Assays were performed using sulforhodamine B and included media only, negative (no compound, no DMSO), and vehicle (DMSO) controls as previously described. A chloroquine control plate was included in each assay. […] Repurchased SN00797640 was tested in dose–response from 100 µM against NFF. Selectivity indices (SI) were calculated by dividing mammalian cell IC50 values by G. duodenalis BRIS/91/HEPU/1279 IC50 values.

[6] = test system: G. duodenalis BRIS/91/HEPU/1279; experiment: Primary Giardia screen at 10 µM (live-cell imaging, automated counting); format: cell-based, Giardia duodenalis; conditions: for inhibition at 10 µM: Giardia duodenalis
How it was run: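 One concentration, 10 μM, is screened per compound in singlicate under microaerophilic gas (3% O2, 5% CO2, N2). Inhibition comes from automated image-based counts at 24 and 48 h, relative to 0.2% DMSO controls.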

[7] = test system: G. duodenalis BRIS/91/HEPU/1279; experiment: Giardia dose response assay, assemblage B; format: cell-based, Giardia duodenalis
Method: In these assays, compounds were serially diluted (8–12-point doubling dilutions in technical duplicate) in DMSO control media, with all test wells inoculated with parasites (1.5 × 10^4 parasites for BRIS/91/HEPU/1279 and BRIS/91/HEPU/1279m1, or 3 × 10^3 parasites for BRIS/87/HEPU/713). […] All plates were sealed in culture chambers and gassed with 3% O2, 5% CO2 in N2 and incubated at 37 °C for 48 h, with parasites imaged and enumerated at 24 and 48 h. Growth inhibition was calculated as a percentage relative to vehicle controls minus any background as described above and IC50 values were determined using log-linear interpolation as previously described. […] Statistical comparison of IC50 values when required were performed using Student’s t-test.

[8] = 24 h, first singlicate assay, read-out: % Inhibition n=1 24h
[9] = 24 h, re-assessment, read-out: % Inhibition n=2 24h
[10] = 24 h, read-out: Average % Inhibition 24h
[11] = 48 h, first singlicate assay, read-out: % Inhibition n=1 48h
[12] = 48 h, re-assessment, read-out: % Inhibition n=2 48h
[13] = 48 h, read-out: Average % Inhibition 48h
[14] = Giardia duodenalis, 24 h, read-out: G. duodenalis IC50 24h, Table S2, 24 h, ±SD, max 10 µM
[15] = Giardia duodenalis, 48 h, Table S2, 48 h, ±SD, max 10 µM, read-out: G. duodenalis IC50 48h

Row | IC50 [7, 14] | IC50 [7, 15] | SMILES | inhibition at 50 µM [1] | inhibition at 50 µM [2] | inhibition at 50 µM [3] | inhibition at 50 µM [4] | inhibition at 20 µM ([5]; Homo sapiens, NFF) | inhibition at 10 µM [6, 8] | inhibition at 10 µM [6, 9] | inhibition at 10 µM [6, 10] | inhibition at 10 µM [6, 11] | inhibition at 10 µM [6, 12] | inhibition at 10 µM [6, 13] | SI (48h Gd) [5] | other results
1 | 5.35 µM | 7.82 µM | O=C(NC1CCCCC1)c1nc(Nc2ccccc2)c2ccccc2n1 [SN00792461, O=C(NC1CCCCC1)c1nc(Nc2ccccc2)c2ccccc2n1] | 8.09% | 12.6% | 10.8% | 3.63% | 21.3 ± 27.1% | 44.7% | 74.4% | 59.5% | 57.7% | 88.5% | 73.1% | > 2 | –
2 | 3.1 ± 2.29 µM | 3.27 ± 4.08 µM | CC(=O)Nc1ccc([N+](=O)[O-])c2nonc12 [SN00783960, CC(=O)Nc1ccc(N(=O)=O)c2nonc12] | 95.3% | 19.9% | 6.26% | 12% | 98.5 ± 3.8% | 53.9% | 36.2% | 45.1% | 66.5% | 60.2% | 63.3% | < 6 | –
3 | > 10 µM | > 10 µM | Cc1nn(-c2ccccc2)c2sc(C(=O)N3CCCCC3)cc12 [SN00783575, O=C(N1CCCCC1)c1cc2c(C)nn(c3ccccc3)c2s1] | 6.02% | 16.3% | 15.1% | -4.12% | 26.9 ± 2.5% | 34% | 8.3% | 21.1% | 63.8% | 15.4% | 39.6% | – | –
4 | 1.76 ± 0.35 µM | 1.01 ± 0.29 µM | COc1ccc(C)cc1N1C(=O)C(c2ccccc2)C(c2nc3ccccc3s2)=C1N (centres unmarked) [SN00776374, COc1ccc(C)cc1N1C(=C(c2nc3ccccc3s2)C(c2ccccc2)C1=O)N] | 16.6% | 11.7% | 13.3% | 2.94% | 100.4 ± 0.2% | 90.5% | 90% | 90.3% | 95.8% | 97.6% | 96.7% | < 20 | Average % Inhibition 48h ([6]; 48 h): > 90%
5 | > 10 µM | 4.58 ± 4.9 µM | COc1cccc(Nc2c3c(nc4ccccc24)CCC3)c1 [SN00784168, COc1cccc(c1)Nc1c2CCCc2nc2ccccc12] | -10.7% | -3.07% | -2.44% | 3.98% | 75.1 ± 0.3% | 27.7% | 16.4% | 22% | 63.3% | 61.4% | 62.4% | < 4 | –
6 | 0.24 ± 0.04 µM | – | CC1CCN(C(=O)c2oc3ccccc3c2NC(=O)c2ccc([N+](=O)[O-])o2)CC1 [SN00788467] | 99.1% | -1.21% | 3.19% | 3.73% | – | 93.2% | 82.3% | 87.7% | 93.9% | 96.4% | 95.2% | > 166 | Bacterial Inhibition S. aureus ([1]; 50 µM): 99%; selectivity index over bacteria ([4]; E. coli, A. baumannii and K. pneumoniae / bacteria, Table S2): > 800; IC50 ([5]; Homo sapiens, NFF, mean ± SD, read-out: IC50 NFF): > 10 µM; Selectivity ([5]; NFF IC50 divided by G. duodenalis BRIS/91/HEPU/1279 IC50): >166; Average % Inhibition 48h ([6]; 48 h): > 90%; fold more potent than metronidazole ([7]; 48 h IC50): > 45 fold; IC50 ([7]; Giardia duodenalis, 48 h, BRIS/91/HEPU/1279, 48 h, mean ± SD, read-out: IC50 Giardia (48 h)): 0.06 µM
7 | > 10 µM | 9.59 µM | COc1cc(OC)c(C2=CCN(C(=O)c3ccc(C)s3)CC2)c(OC)c1 [SN00769982, COc1cc(OC)c(C2=CCN(CC2)C(=O)c2ccc(C)s2)c(OC)c1] | 3.41% | 15.6% | 2.57% | 6.08% | -9.1 ± 3.8% | 46.2% | 0% | 23.1% | 78.1% | 40.5% | 59.3% | – | –

Row | SMILES | IC50 [7, 14] | IC50 [7, 15] | inhibition at 50 µM [1] | inhibition at 50 µM [2] | inhibition at 50 µM [3] | inhibition at 50 µM [4] | inhibition at 20 µM ([5]; Homo sapiens, NFF) | inhibition at 10 µM [6, 8] | inhibition at 10 µM [6, 9] | inhibition at 10 µM [6, 10] | inhibition at 10 µM [6, 11] | inhibition at 10 µM [6, 12] | inhibition at 10 µM [6, 13] | SI (48h Gd) [5] | other results
8 | COc1ccccc1N1CCN(C(=O)c2cc3c(C)nn(-c4ccc(C)cc4)c3s2)CC1 [SN00793100, COc1ccccc1N1CCN(CC1)C(=O)c1cc2c(C)nn(c3ccc(C)cc3)c2s1] | > 10 µM | > 10 µM | 10.1% | 7.52% | 9.06% | 1.35% | 46.7 ± 6.8% | 51.9% | 44% | 48% | 62.1% | 69.2% | 65.6% | – | –
9 | COc1ccc(-c2csc(C3=C(N)N(CC(C)(C)CN(C)C)CC3=O)n2)cc1OC [SN00776314, COc1cc(ccc1OC)c1csc(n1)C1=C(N)N(CC1=O)CC(C)(C)CN(C)C] | > 10 µM | 9.16 µM | 13.2% | 10.9% | 9.53% | 5.58% | 24 ± 26.8% | 31.7% | 16.2% | 24% | 85.1% | 68.5% | 76.8% | > 2 | inhibition at 10 µM ([7]; Giardia duodenalis, read-out: % inhibition @ 10µM 48h (comment), Table S2 comment, 10 µM, 48 h): 48.3%
10 | COc1ccc(Nc2cc(C)nc(N3CCN(C(=O)Nc4cccc(OC)c4)CC3)n2)cc1 [SN00793512, COc1ccc(cc1)Nc1cc(C)nc(n1)N1CCN(CC1)C(=O)Nc1cccc(OC)c1] | 8.74 µM | 8.63 ± 1.91 µM | 6.36% | 4.81% | 16.8% | 3.7% | 35.2 ± 2.5% | 50.6% | 48.1% | 49.3% | 88.7% | 84.5% | 86.6% | > 2 | –
11 | Cc1ccc(C(=O)Nc2cc(-c3nc(C)cs3)sc2C)cc1 [SN00798457, Cc1ccc(cc1)C(=O)Nc1cc(sc1C)c1scc(C)n1] | > 10 µM | > 10 µM | -16.6% | 0.63% | -2.12% | 1.98% | 16.3 ± 20.4% | 39.3% | 16.7% | 28% | 60% | 52.2% | 56.1% | – | –
12 | O=[N+]([O-])c1ccc(N2CCC(c3ncc[nH]3)CC2)c2ccncc12 [SN00772378, O=N(=O)c1ccc(N2CCC(CC2)c2ncc[nH]2)c2ccncc12] | > 10 µM | 4.79 ± 1.45 µM | 34.4% | 15.6% | 4.73% | 5.55% | 1.2 ± 1% | 80.4% | 47.7% | 64% | 88.7% | 87.4% | 88% | – | –
